# From paper PMC2889615 (Biochemistry, 2010)
# Tests used:
# PODANSg2158 = molecular target: T1, PODANSg2158 (Podospora anserina, UniProt B2AM55); test: X-ray crystal structure, […] Å; type: binding; conditions: wild-type enzyme; FAD in each of four subunits; pH 6 crystals
# T1 sequence (B2AM55 1-430): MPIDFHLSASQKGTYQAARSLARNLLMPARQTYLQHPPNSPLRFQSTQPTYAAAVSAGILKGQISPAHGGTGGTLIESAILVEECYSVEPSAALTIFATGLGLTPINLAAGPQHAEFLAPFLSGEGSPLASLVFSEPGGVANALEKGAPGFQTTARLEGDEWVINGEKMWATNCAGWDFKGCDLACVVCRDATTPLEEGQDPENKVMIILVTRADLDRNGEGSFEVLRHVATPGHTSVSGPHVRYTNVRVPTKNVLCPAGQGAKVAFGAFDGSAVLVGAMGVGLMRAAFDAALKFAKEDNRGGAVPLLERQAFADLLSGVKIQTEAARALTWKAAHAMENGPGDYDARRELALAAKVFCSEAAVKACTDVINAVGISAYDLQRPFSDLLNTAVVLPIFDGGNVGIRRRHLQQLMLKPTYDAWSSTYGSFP
# Asp402 = Asp402 (UniProt position 402, CYPLFDGGNIG); test: kinetics; conditions: free enzyme; substrate nitroethane; cited from earlier work
Compound,"X-ray crystal structure, 2.0 Å (PODANSg2158)",pKa (Asp402)
Cc1cc2nc3c(=O)[nH]c(=O)nc-3n(C[C@H](O)[C@H](O)[C@H](O)COP(=O)(O)OP(=O)(O)OC[C@H]3O[C@@H](n4cnc5c(N)ncnc54)[C@H](O)[C@@H]3O)c2cc1C [FAD],FAD could be clearly identified in each of the subunits.,–
Nitroalkane oxidase (NAO) (Fusarium oxysporum),–,6.9
